Data published in PubChem BioAssay (NCI).
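A five-concentration, 48-hour dose response in 96-well plates underlies each endpoint, interpolated linearly between surrounding concentrations. The concentration for 50% growth inhibition is given as GI50. TGI denotes the concentration required for complete inhibition of growth.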

Key:
Experiment in all cases: NCI-60 cell line screen, 48 h
A498 renal = test system: A498 renal
SK-MEL-5 melanoma = test system: SK-MEL-5 melanoma
HCT-15 colon = test system: HCT-15 colon
HOP-92 NSCLC = test system: HOP-92 NSCLC
COLO 205 colon = test system: COLO 205 colon
HCC-2998 colon = test system: HCC-2998 colon
MOLT-4 leukemia = test system: MOLT-4 leukemia
KM12 colon = test system: KM12 colon
A549 NSCLC = test system: A549 NSCLC
786-0 renal = test system: 786-0 renal
OVCAR-8 ovarian = test system: OVCAR-8 ovarian
HOP-62 NSCLC = test system: HOP-62 NSCLC
NCI-H460 lung = test system: NCI-H460 lung
U251 CNS = test system: U251 CNS
SF-295 CNS = test system: SF-295 CNS
LOX IMVI melanoma = test system: LOX IMVI melanoma
SN12C renal = test system: SN12C renal
MALME-3M melanoma = test system: MALME-3M melanoma
HL-60(TB) leukemia = test system: HL-60(TB) leukemia
CAKI-1 renal = test system: CAKI-1 renal
UO-31 renal = test system: UO-31 renal
RPMI-8226 leukemia = test system: RPMI-8226 leukemia
M14 melanoma = test system: M14 melanoma
SK-OV-3 ovarian = test system: SK-OV-3 ovarian
SNB-75 CNS = test system: SNB-75 CNS
UACC-257 melanoma = test system: UACC-257 melanoma
OVCAR-3 ovarian = test system: OVCAR-3 ovarian
K-562 leukemia = test system: K-562 leukemia
RXF 393 renal = test system: RXF 393 renal
NCI-H23 lung = test system: NCI-H23 lung
HCT-116 colon = test system: HCT-116 colon
SK-MEL-2 melanoma = test system: SK-MEL-2 melanoma
SW-620 colon = test system: SW-620 colon
KM20L2 colon = test system: KM20L2 colon
UACC-62 melanoma = test system: UACC-62 melanoma
NCI-H226 lung = test system: NCI-H226 lung
IGROV1 ovarian = test system: IGROV1 ovarian
SNB-19 CNS = test system: SNB-19 CNS
ACHN renal = test system: ACHN renal
SF-268 CNS = test system: SF-268 CNS
TK-10 renal = test system: TK-10 renal
OVCAR-4 ovarian = test system: OVCAR-4 ovarian
SF-539 CNS = test system: SF-539 CNS
SK-MEL-28 melanoma = test system: SK-MEL-28 melanoma
NCI-H522 lung = test system: NCI-H522 lung
HT29 colon = test system: HT29 colon

C1C[OH+]CC[OH+]CC[OH+]CC[OH+]CC[OH+]CC[OH+]1.[Cl-].[Nb+5]
GI50 (A498 renal): > 100 µM
TGI (A498 renal): > 100 µM
GI50 (SK-MEL-5 melanoma): > 100 µM
TGI (SK-MEL-5 melanoma): > 100 µM
GI50 (HCT-15 colon): > 100 µM
TGI (HCT-15 colon): > 100 µM
GI50 (HOP-92 NSCLC): > 100 µM
TGI (HOP-92 NSCLC): > 100 µM
GI50 (COLO 205 colon): > 100 µM
TGI (COLO 205 colon): > 100 µM
GI50 (HCC-2998 colon): > 100 µM
TGI (HCC-2998 colon): > 100 µM
GI50 (MOLT-4 leukemia): > 100 µM
TGI (MOLT-4 leukemia): > 100 µM
GI50 (KM12 colon): > 100 µM
TGI (KM12 colon): > 100 µM
GI50 (A549 NSCLC): > 100 µM
TGI (A549 NSCLC): > 100 µM
GI50 (786-0 renal): > 100 µM
TGI (786-0 renal): > 100 µM
GI50 (OVCAR-8 ovarian): > 100 µM
TGI (OVCAR-8 ovarian): > 100 µM
GI50 (HOP-62 NSCLC): > 100 µM
TGI (HOP-62 NSCLC): > 100 µM
GI50 (NCI-H460 lung): > 100 µM
TGI (NCI-H460 lung): > 100 µM
GI50 (U251 CNS): > 100 µM
TGI (U251 CNS): > 100 µM
GI50 (SF-295 CNS): > 100 µM
TGI (SF-295 CNS): > 100 µM
GI50 (LOX IMVI melanoma): > 100 µM
TGI (LOX IMVI melanoma): > 100 µM
GI50 (SN12C renal): > 100 µM
TGI (SN12C renal): > 100 µM
GI50 (MALME-3M melanoma): > 100 µM
TGI (MALME-3M melanoma): > 100 µM
GI50 (HL-60(TB) leukemia): > 100 µM
TGI (HL-60(TB) leukemia): > 100 µM
GI50 (CAKI-1 renal): > 100 µM
TGI (CAKI-1 renal): > 100 µM
GI50 (UO-31 renal): 68.6 µM
TGI (UO-31 renal): > 100 µM
GI50 (RPMI-8226 leukemia): > 100 µM
TGI (RPMI-8226 leukemia): > 100 µM
GI50 (M14 melanoma): > 100 µM
TGI (M14 melanoma): > 100 µM
GI50 (SK-OV-3 ovarian): > 100 µM
TGI (SK-OV-3 ovarian): > 100 µM
GI50 (SNB-75 CNS): 39.6 µM
TGI (SNB-75 CNS): > 100 µM
GI50 (UACC-257 melanoma): > 100 µM
TGI (UACC-257 melanoma): > 100 µM
GI50 (OVCAR-3 ovarian): > 100 µM
TGI (OVCAR-3 ovarian): > 100 µM
GI50 (K-562 leukemia): > 100 µM
TGI (K-562 leukemia): > 100 µM
GI50 (RXF 393 renal): 85.3 µM
TGI (RXF 393 renal): > 100 µM
GI50 (NCI-H23 lung): > 100 µM
TGI (NCI-H23 lung): > 100 µM
GI50 (HCT-116 colon): > 100 µM
TGI (HCT-116 colon): > 100 µM
GI50 (SK-MEL-2 melanoma): > 100 µM
TGI (SK-MEL-2 melanoma): > 100 µM
GI50 (SW-620 colon): > 100 µM
TGI (SW-620 colon): > 100 µM
GI50 (KM20L2 colon): > 100 µM
TGI (KM20L2 colon): > 100 µM
GI50 (UACC-62 melanoma): > 100 µM
TGI (UACC-62 melanoma): > 100 µM
GI50 (NCI-H226 lung): > 100 µM
TGI (NCI-H226 lung): > 100 µM
GI50 (IGROV1 ovarian): > 100 µM
TGI (IGROV1 ovarian): > 100 µM
GI50 (SNB-19 CNS): > 100 µM
TGI (SNB-19 CNS): > 100 µM
GI50 (ACHN renal): > 100 µM
TGI (ACHN renal): > 100 µM
GI50 (SF-268 CNS): > 100 µM
TGI (SF-268 CNS): > 100 µM
GI50 (TK-10 renal): > 100 µM
TGI (TK-10 renal): > 100 µM
GI50 (OVCAR-4 ovarian): > 100 µM
TGI (OVCAR-4 ovarian): > 100 µM
GI50 (SF-539 CNS): > 100 µM
TGI (SF-539 CNS): > 100 µM
GI50 (SK-MEL-28 melanoma): > 100 µM
TGI (SK-MEL-28 melanoma): > 100 µM
GI50 (NCI-H522 lung): > 100 µM
TGI (NCI-H522 lung): > 100 µM
GI50 (HT29 colon): > 100 µM
TGI (HT29 colon): > 100 µM
